Values quoted from earlier work as cited in patent US8137922B2, “Method for diagnosing the metabolic syndrome (MS)” (Hans Dieplinger, priority 2007, dated 2012).
Like-named read-outs stand apart in the source and are kept apart here.

Molecular target: T1, afamin (Homo sapiens, UniProt P43652)
T1 sequence (P43652 22-599): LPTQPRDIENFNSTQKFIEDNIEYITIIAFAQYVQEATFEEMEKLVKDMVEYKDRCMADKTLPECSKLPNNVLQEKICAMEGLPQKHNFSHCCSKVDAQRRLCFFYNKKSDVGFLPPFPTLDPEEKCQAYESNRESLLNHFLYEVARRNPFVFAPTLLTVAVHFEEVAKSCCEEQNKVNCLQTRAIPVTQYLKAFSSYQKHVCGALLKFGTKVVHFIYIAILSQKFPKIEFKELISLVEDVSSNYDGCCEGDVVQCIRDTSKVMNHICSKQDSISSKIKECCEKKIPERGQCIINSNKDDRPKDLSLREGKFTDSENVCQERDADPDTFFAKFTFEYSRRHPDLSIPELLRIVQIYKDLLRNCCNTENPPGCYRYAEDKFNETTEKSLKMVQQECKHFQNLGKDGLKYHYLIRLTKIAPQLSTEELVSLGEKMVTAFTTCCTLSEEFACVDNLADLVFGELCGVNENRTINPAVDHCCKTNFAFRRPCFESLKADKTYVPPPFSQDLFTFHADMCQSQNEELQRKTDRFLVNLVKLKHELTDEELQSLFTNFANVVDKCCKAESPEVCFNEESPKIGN
Settings: for maximum displacement of tocopherol: 2 μM afamin, 60 μM alpha-[14C]tocopherol, 100-fold excess of non-labeled competitor

Compound | maximum displacement of tocopherol | Hill coefficient (calculated, indicates that afamin could bind pairs of tocopherol) | Kd (first of two binding sites, read-out: KD1, affinity of afamin for vitamin E) | Kd (second of two binding sites, read-out: KD2, affinity of afamin for vitamin E) | maximal binding (Bmax) (when both sites are activated)
Cc1c(C)c2c(c(C)c1O)CC[C@@](C)(CCC[C@H](C)CCC[C@H](C)CCCC(C)C)O2 [alpha-tocopherol] | 80% |  |  |  | 
Cc1c(O)cc2c(c1C)O[C@](C)(CCC[C@H](C)CCC[C@H](C)CCCC(C)C)CC2 [gamma-tocopherol] | 80% |  |  |  | 
vitamin E |  | 1.8 | 6.3 µM | 22 µM | 18 molecules of Vitamin E
